For series [1], the system named is Msmeg. Description: Metabolic labeling of Msmeg with TMM reporters 1-6 (CuAAC, SPAAC, tetrazine ligation or one-step). As to conditions: 4 h; for concentration of labeling saturation: Msmeg and Cglut, range up to 250 μM, flow cytometry (FIG. 62). In general terms: In flow cytometry, cells or beads pass a laser one at a time.
The subject of series [2] is Msmeg PG-AGM and extractable lipids fractions. The experiment in a line: Cellular fractionation and fluorescence analysis of labeled Msmeg. In kind it is cell-based, Mycobacterium smegmatis. As to conditions: for distribution of fluorescence between PG-AGM and extractable lipids fractions: Msmeg 4 h, O-AlkTMM 50 μM, N-AlkTMM 250 μm, 6-TreAz 25 μM, CHCl3/CH3OH extraction. As to the method:
Cellular fractionation and analysis of labeled Msmeg. 10 mL Msmeg cultures were grown in 7H9 liquid medium in the presence of O-AlkTMM (50 μM), N-AlkTMM (250 μm) or left untreated in 15 mL conical tubes. A higher concentration of N-AlkTMM was used to maximize labeling efficiency. In parallel, cultures were grown in the presence of 6-TreAz (25 μM) or left […] untreated. Cells were incubated with shaking for 4 h at 37° C. until reaching late-log phase, then pelleted by centrifugation and washed with PBSB three times as described above. For O- and N-AlkTMM-labeled cells and their untreated control, the above-described click chemistry procedure was carried out with Az488 at a reaction volume of 500 μL. For 6-TreAz-labeled cells and their untreated control, the above-described click chemistry procedure was carried out with Alk488 at a reaction volume of 500 μL. After the click reactions, cells were pelleted by centrifugation and washed with PBSB three times as described above. Aliquots were removed and resuspended in PBS 1× for measurement of OD600 (for normalization of fluorescence values) and analysis by flow cytometry as shown in FIG. 13. The remainder of the cells were resuspended in 1 mL HPLC grade CH3OH and transferred to a glass screw-cap culture tube containing 2 mL CHCl3 and equipped with a stir bar. The CHCl3/CH3OH (2:1) cell suspension was stirred overnight to accomplish separation of the soluble extractable lipids from the insoluble PG-AGM material. The insoluble material was pelleted by centrifugation (3,600 rpm, 10 minutes, room temperature) and washed two times with CHCl3/CH3OH (2:1). The CHCl3/CH3OH (2:1) supernatants containing soluble extractable lipids were combined in a 20 mL glass scintillation vial and dried by rotary evaporation. Both fractions were subjected to TLC analysis as described in FIG. 12 to confirm separation of the extractable lipids from the PG-AGM material. Both fractions were then resuspended in 1 mL 5% aqueous tetrabutylammonium hydroxide (TBAH) in glass screw-cap culture tubes, sealed and then stirred overnight at 100° C. to saponify and solubilize the samples. Next, the samples were cooled to room temperature and 200 μL aliquots were transferred to a black flat-bottom 96-well plate.

The next series concerns Ag85. The experiment in a line: Effect of ebselen on AlkTMM labeling in Msmeg (Ag85 dependency). In kind it is cell-based, Mycobacterium smegmatis. As to conditions: ebselen 50 μg/mL 8 h; for decrease of labeling upon treatment of Msmeg with ebselen: then reporter 4 h (O-AlkTMM 50 μM; N-AlkTMM 100 μM). As to the method: Effect of ebselen on AlkTMM labeling in Msmeg. Msmeg was cultured in 7H9 liquid medium in 96-well plates in the presence of ebselen (50 μg/mL) for 8 hours, after which the chemical reporter (O-AlkTMM, 50 μM; N-AlkTMM, 100 μM; 6-TreAz, 25 μM) was added and the cells were incubated for another 4 hours. Cells were subjected to CuAAC and analyzed by flow cytometry as described above.

The test system of series [3] is SugABC-LpqY trehalose transporter. Description: Labeling in Msmeg wild type versus Msmeg ΔsugC. The series is classed as cell-based, Mycobacterium smegmatis. As to conditions: Msmeg wild type vs ΔsugC.
The subject of another series is Bacillus subtilis. Description: AlkTMM labeling specificity, B. subtilis. In kind it is cell-based. As to conditions: species specificity, flow cytometry and microscopy.
The subject of another series is Escherichia coli. Description: AlkTMM labeling specificity, E. coli. The series is classed as cell-based. As to conditions: species specificity, flow cytometry and microscopy.
The subject of the next series is C. glutamicum. The experiment in a line: AlkTMM labeling specificity, C. glutamicum. The series is classed as cell-based, Corynebacterium glutamicum. As to conditions: species specificity, flow cytometry and microscopy.
Series [4] relates to Msmeg. Description: Growth of Msmeg during treatment with probes. The series is classed as cell-based, Mycobacterium smegmatis. As to conditions: up to 250 μM. As to the method: Plates were incubated at 37° C. […] Tubes were incubated at 37° C.
Series [5] has as its system M. smegmatis mc2155 (Msmeg). Description: Metabolic labeling of Msmeg with AlkTMM probes, CuAAC with Az488, flow cytometry / microscopy. In kind it is cell-based, Mycobacterium smegmatis. Details: concentration at which labeling was saturable: unit not given here. As to conditions: for labeling after only a few seconds of culture time / labeling features in time-course fluorescence microscopy: Msmeg; for change in labeling between log- and stationary-phase Msmeg: growth phase dependence; for labeling of Msmeg: species specificity, flow cytometry and microscopy.

For series [6], the system named is Msmeg. The experiment in a line: Competition of AlkTMM labeling in Msmeg with unlabeled probes. In kind it is cell-based, Mycobacterium smegmatis. As to conditions: competitor 250, 1000, 5000 μM, 4 h; O-AlkTMM 50 μM with O—C7TMM, N-AlkTMM 100 μM with N—C7TMM. As to the method: Competition of AlkTMM labeling in Msmeg. For O-AlkTMM competition experiments, Msmeg was cultured in 7H9 liquid medium in 96-well plates in the presence of O-AlkTMM (50 μM) and its unlabeled version, O—C7TMM, at concentrations of 250, 1000, and 5000 μM (or without competitor) for 4 h. For N-AlkTMM competition experiments, Msmeg was cultured in 7H9 liquid medium in the presence of N-AlkTMM (100 μM) and its unlabeled version, […], at concentrations of 250, 1000, and 5000 μM (or without competitor) for 4 h. Cells were subjected to CuAAC and analyzed by flow cytometry as described above.

Series [7] can be described thus: Water solubility of reporters.
For the next series, the system named is Cglut. The experiment in a line: Metabolic labeling of Cglut with TMM reporters 4-6. As to conditions: flow cytometry.

Consider eight compounds from patent US11845773B2, “Trehalose analogues” (Central Michigan University, priority 2016, dated 2023).

Bounds are passed on as bounds.

For the compound “6-O-(10-undecynoyl)-α,α-D-trehalose [O-AlkTMM-C11]”, the “dependence of labeling on acyl chain length” value with Msmeg [1] (Msmeg, 50 μM reporter, azido-488 CuAAC, flow cytometry) was “small increase”.

In the case of `[N-]=[N+]=NC[C@H]1O[C@H](O[C@H]2O[C@H](CO)[C@@H](O)[C@H](O)[C@H]2O)[C@H](O)[C@@H](O)[C@@H]1O` [6-TreAz, reference compound], the “distribution of fluorescence between PG-AGM and extractable lipids fractions” value in series [2] was “signal exclusively in the extractable lipids fraction”. Besides, the “effect of ebselen treatment on Msmeg labeling” value with Ag85 (then 6-TreAz 25 μM 4 h) was “did not reduce”.

As for `C#CCCCCC(=O)NCC1O[C@H](O[C@H]2OC(CO)[C@@H](O)C(O)[C@H]2O)C(O)[C@@H](O)[C@@H]1O` (stereo partly drawn) [N-AlkTMM, N-(6-heptynoyl)-6-amino-6-deoxy-α,α-D-trehalose], the “dependence of incorporation on trehalose transporter SugABC-LpqY” value in series [3] is recorded as “not dependent on the trehalose transporter SugABC-LpqY”. Besides, the “labeling of B. subtilis” value with Bacillus subtilis is reported as “no labeling above background”. Further, the “distribution of fluorescence between PG-AGM and extractable lipids fractions” value in [2] is “signal only in the extractable lipids fraction”. For the same compound, the “labeling of E. coli” value in the series with Escherichia coli is “no labeling above background”. The “decrease of labeling upon treatment of Msmeg with ebselen” value in the series with Ag85 is recorded as about 85%. For the same compound, the “labeling of C. glutamicum” value in the series with C. glutamicum is “strong labeling of the cell surface”. Moreover, the “growth impairment of Msmeg” value with Msmeg [4] is listed as “no growth impairment”. Besides, in series [5], the “labeling after only a few seconds of culture time” value is listed as “significant labeling could be detected”; the “labeling features in time-course fluorescence microscopy” value is “intensely fluorescent septa in dividing cells, highly polar labeling for short pulses, and diffuse surface labeling for longer pulses”; the “change in labeling between log- and stationary-phase Msmeg” value was “significant decrease”; the “labeling of Msmeg” value was “strong labeling of the cell surface”. In addition, the “S/N reached under the conditions tested” value in series [5] (Msmeg 14 h, 1-250 μm probe, Az488 CuAAC, flow cytometry) was over 150. For the same compound, the “signal lower than O-AlkTMM at the same concentrations” value in [5] (Msmeg 14 h, flow cytometry) is on record as “approximately 10 fold”. Moreover, the “competition of labeling signal by unlabeled version of the probe” value in the series on Msmeg [6] was “Dose-dependent competition of signal”.

`C#CCCCCC(=O)OCC1O[C@H](O[C@H]2OC(CO)[C@@H](O)C(O)[C@H]2O)C(O)[C@@H](O)[C@@H]1O` (stereo partly drawn) [O-AlkTMM, 6-O-(6-heptynoyl)-α,α-D-trehalose]: the water solubility entry in series [7] was “conveniently water-soluble”. The “dependence of incorporation on trehalose transporter SugABC-LpqY” value in [3] is on record as “not dependent on the trehalose transporter SugABC-LpqY”. For the same compound, the “labeling of B. subtilis” value in the series on Bacillus subtilis is recorded as “no labeling above background”. The “distribution of fluorescence between PG-AGM and extractable lipids fractions” value in series [2] was “nearly all of the fluorescence from O-AlkTMM treated Msmeg was present in the PG-AGM fraction”. Also, the “fraction of probe reacting with TMM to form alkyne-labeled TDM” value in series [2] (estimated from extractable lipids fluorescence, FIG. 7) was at most 10%. In addition, the “labeling of E. coli” value in the series with Escherichia coli is on record as “no labeling above background”. For the same compound, in the series with Ag85, the “decrease of labeling upon treatment of Msmeg with ebselen” value is “approximately 70%”. Also, the “labeling of C. glutamicum” value in the series on C. glutamicum is “strong labeling of the cell surface”. Also, in the series on Msmeg [4], the “growth impairment of Msmeg” value is reported as “no growth impairment”. Also, in series [5], the “labeling after only a few seconds of culture time” value was “significant labeling could be detected”; the “labeling features in time-course fluorescence microscopy” value was “intensely fluorescent septa in dividing cells, highly polar labeling for short pulses, and diffuse surface labeling for longer pulses”; the “change in labeling between log- and stationary-phase Msmeg” value is reported as “significant decrease”; the “labeling of Msmeg” value is “strong labeling of the cell surface”. Besides, the “concentration at which labeling was saturable” value in series [5] (Msmeg 14 h, Az488 CuAAC, flow cytometry) is listed as 50. For the same compound, the “signal-to-noise ratio (S/N) of labeling” value in series [5] (Msmeg cultured 14 h, Az488 CuAAC, flow cytometry) is over 20. In addition, the “competition of labeling signal by unlabeled version of the probe” value in the series with Msmeg [6] is given as “Dose-dependent competition of signal”.

On to `C#CCCC(=O)OCC1O[C@H](O[C@H]2OC(CO)[C@@H](O)C(O)C2O)C(O)C(O)[C@@H]1O` (stereo partly drawn) [O-AlkTMM-C5, 6-O-(4-pentynoyl)-α,α-D-trehalose], for which the water solubility entry in [7] is recorded as “conveniently water-soluble”.

As to `[N-]=[N+]=NCCCCCCCCCC(=O)OCC1O[C@H](O[C@H]2OC(CO)[C@@H](O)C(O)C2O)C(O)C(O)[C@@H]1O` (stereo partly drawn) [O-AzTMM-C10, 6-O-(10-azidodecanoyl)-α,α-D-trehalose], in the series on Msmeg [1], the “concentration of labeling saturation” value was “approximately 25 μM”.

In the case of `O=C(CCCCCCCCCNC(=S)Nc1ccc2c(c1)C(=O)OC21c2ccc(O)cc2Oc2cc(O)ccc21)OC[C@H]1O[C@H](O[C@H]2O[C@H](CO)[C@@H](O)[C@H](O)[C@H]2O)[C@H](O)[C@@H](O)[C@@H]1O` [O-FITC-TMM, 6-O-(10-[(fluorescein-5-yl)thioureido]decanoyl)-α,α-D-trehalose], the “concentration of labeling saturation” value in the series with Msmeg [1] is at least 100 µM. Moreover, the “incorporation into Cglut relative to Msmeg” value with Cglut was “much more efficiently than in Msmeg”.

Turning to `O=C(CCCCCCCCCNC(=O)OC1CC/C=C/CCC1)OC[C@H]1O[C@H](O[C@H]2O[C@H](CO)[C@@H](O)[C@H](O)[C@H]2O)[C@H](O)[C@@H](O)[C@@H]1O` (stereo partly drawn) [O-TCO-TMM, 6-O-(10-{N—[(E)-cylcooct-4-en1yloxy]carbonyl}aminodecanoyl)-α,α-D-trehalose], in the series with Msmeg [1], the “concentration of labeling saturation” value is reported as “approximately 25 μM”. In the series with Cglut, the “incorporation into Cglut relative to Msmeg” value is recorded as “much more efficiently than in Msmeg”.
